Data set [1] can be described thus: Absorption in a Caco-2 cells model. In kind it is in vitro ADME. The following applies: human. On the procedure: (§1) Absorption of the compounds of formula (I) was tested in a Caco-2 cells model (Gastroenterology 1989, 96, 736): […]
A further data set has as its system Caco-2 cells. The data set can be described thus: Absorption in a Caco-2 cells model. In kind it is in vitro ADME. On the procedure: as §1
Data set [2] deals with ^14C-cholesterol absorption. The data set can be described thus: In vivo testing of cholesterol absorption inhibitors (A). Set-up: species or system C57BL/6 female mice. To be noted: procedure A, gavage, mice. As to the method:
In vivo Testing of Cholesterol Absorption Inhibitors (A)
C57BL/6 female mice were maintained on regular chow diet and housed in individual cages to collect faeces. Mice were fasted for 3 hours and then gavaged with vehicle or compound. Half an hour later the mice were gavaged with radiolabelled cholesterol. Six hours after the ^14C-cholesterol gavage blood samples were taken via the tail and plasma prepared to determine how much cholesterol were absorbed. 24 hours after the gavage of ^14C-cholesterol the mice were bled and plasma were prepared for analysis. Faeces were collected for 24 hours to assess absorption efficiency.

Turning to `CC(C)[C@@H](NC(=O)CNC(=O)COc1ccc([C@@H]2[C@@H](SCC(O)c3ccc(F)cc3)C(=O)N2c2ccc(F)cc2)cc1)C(=O)O` (stereo partly drawn) [Example 23, N-{[4-((2R,3R)-1-(4-fluorophenyl)-3-{[2-(4-fluorophenyl)-2-hydroxyethyl]thio}-4-oxoazetidin-2-yl)phenoxy]acetyl}glycyl-D-valine], the Papp in data set [1] was found to be 0.06 ×10⁻⁶ cm/s.
In the case of `O=C(COc1ccc([C@@H]2[C@@H](SCC(O)c3ccc(F)cc3)C(=O)N2c2ccc(F)cc2)cc1)NCC(=O)N[C@H](Cc1ccc(O)cc1)C(=O)O` (stereo partly drawn) [Example 26, N-{[4-((2R,3R)-1-(4-fluorophenyl)-3-{[2-(4-fluorophenyl)-2-hydroxyethyl]thio}-4-oxoazetidin-2-yl)phenoxy]acetyl}glycyl-D-tyrosine], in data set [1], the Papp came to 0.07 ×10⁻⁶ cm/s.
In turn, `NCCCC[C@@H](NC(=O)CNC(=O)COc1ccc([C@@H]2[C@@H](SCC(O)c3ccc(F)cc3)C(=O)N2c2ccc(F)cc2)cc1)C(=O)O` (some centres unmarked) [Example 29] yielded a Caco value with Caco-2 cells of 0.2 ×10⁻⁶ cm/s.
Take `O=C(COc1ccc([C@@H]2[C@@H](SCC(O)c3ccc(F)cc3)C(=O)N2c2ccc(F)cc2)cc1)NCC(=O)N[C@H](CC1CCCC1)C(=O)O` (stereo partly drawn) [Example 85, N-{[4-((2R,3R)-1-(4-fluorophenyl)-3-{[2-(4-fluorophenyl)-2-hydroxyethyl]thio}-4-oxoazetidin-2-yl)phenoxy]acetyl}glycyl-3-cyclopentyl-D-alanine]: in data set [2] (0.2 μmol/kg), the “inhibition of ^14C-cholesterol absorption” value (“inhibition” below) is 47%.
As to `NCCC[C@@H](NC(=O)CNC(=O)COc1ccc([C@@H]2[C@@H](SCC(O)c3ccc(F)cc3)C(=O)N2c2ccc(F)cc2)cc1)C(=O)O` (stereo partly drawn) [Example 91, N-{[4-((2R,3R)-1-(4-fluorophenyl)-3-{[2-(4-fluorophenyl)-2-hydroxyethyl]thio}-4-oxoazetidin-2-yl)phenoxy]acetyl}glycyl-D-ornithine], the “inhibition” value in data set [2] (0.2 μmol/kg) is listed as 58%.
For `O=C(COc1ccc([C@@H]2[C@@H](SCC(O)c3ccc(F)cc3)C(=O)N2c2ccc(F)cc2)cc1)N[C@@H](C(=O)N[C@@H](CO)C(=O)O)c1ccccc1` (stereo partly drawn) [Example 94, 1-(4-Fluorophenyl)-3-(R)-[2-(4-fluorophenyl)-2-hydroxyethylthio]-4-(R)-{4-[N-(α-(R)-{N-[2-(hydroxy)-1-(S)-(carboxy)ethyl]carbamoyl}benzyl)carbamoylmethoxy]phenyl}azetidin-2-one], in data set [2] (5 μmol/kg), the “inhibition” value was determined as 89%.
As for `O=C(COc1ccc([C@@H]2[C@@H](SCC(O)c3ccc(F)cc3)C(=O)N2c2ccc(F)cc2)cc1)NCC(=O)N[C@H](CO)C(=O)O` (stereo partly drawn) [Example 96, 1-(4-Fluorophenyl)-3-(R)-[2-(4-fluorophenyl)-2-hydroxyethylthio]-4-(R)-{4-[N-{N-[2-(hydroxy)-1-(R)-(carboxy)ethyl]carbamoylmethyl}carbamoylmethoxy]phenyl}azetidin-2-one], in data set [2] (5 μmol/kg), the “inhibition” value turned out to be 87%.
`O=C(COc1ccc([C@@H]2[C@@H](SCC(O)c3ccc(F)cc3)C(=O)N2c2ccc(F)cc2)cc1)NCC(=O)N[C@H](Cc1ccccc1)C(=O)O` (stereo partly drawn) [Example 97, 1-(4-Fluorophenyl)-3-(R)-[2-(4-fluorophenyl)-2-hydroxyethylthio]-4-(R)-{4-[N-{N-[2-(phenyl)-1-(R)-(carboxy)ethyl]carbamoylmethyl}carbamoylmethoxy]phenyl}azetidin-2-one]: in the data set with Caco-2 cells, the Caco value turned out to be 0.09 ×10⁻⁶ cm/s.

By Papp is commonly meant a coefficient for how fast a substance crosses the barrier. A low value points to poor permeation.

(Values after US7871998B2, “Diphenylazetidinone derivatives possessing cholesterol absorption inhibitory activity” (AstraZeneca AB, priority 2003, dated 2011).)
